In one series the test system is fathead minnow. Conditions: cited from earlier work; for LC50: fathead minnow ref 27.
Series [1] deals with gfp, adh8a, adh8b mRNA injected zebrafish embryos. As to the kind of experiment: Zebrafish embryo test after microinjection of gfp, adh8a, adh8b or adh8a/b mRNA. It is filed as in vivo, zebrafish (Danio rerio). Conditions: for increase in acute toxicity in response to injection of adh8 mRNA: gfp, adh8a, adh8b, adh8a/b mRNA injected embryos. The protocol: (§1) The zebrafish embryo test was performed with few modifications according to a standard operation procedure and a static exposure setup without renewal of exposure solutions (ISO 15088, 2006). The following chemicals were used: Allyl alcohol (CAS 107-18-6, purity 99.8%, Sigma-Aldrich, Deisenhofen, Germany), acrolein (CAS 107-02-8, purity ≥99.0%, Sigma-Aldrich, Deisenhofen, Germany), 4-Nitrophenol (CAS 100-02-7, PESTANAL, analytical standard, Sigma-Aldrich, Deisenhofen, Germany), and ethanol (CAS 64-17-5, purity ≥ 99.5%, Carl Roth, Germany). Stock solutions were prepared for each experiment by adding the appropriate amount for the highest test concentration to the exposure media (294.0 mg/L CaCl2*2H2O, 123.3 mg/L MgSO4*7H2O, 64.7 mg/L NaHCO3, 5.7 mg/L KCl). The solutions were prepared one day before the experiment in 100 ml closed graduated flasks and were stirred over night for approximately 14 h. Lower concentrations were obtained by serial dilutions. Fertilized eggs (embryos at 4–32 cell stage) were transferred by a pipette to 24-well plates (1 embryo per well, 10 wells per exposure concentration, Cellstar Greiner Bio-One, Frickenhausen, Germany) or crystallization glass dishes (80 mm diameter, 10–20 embryos per vial and 30 ml of exposure medium), respectively. Exposures were performed in independent triplicates on different days for 48 h from 2-50 hpf (hours post fertilization), 24–72 hpf, and 72–120 hpf. For the 24–72 hpf exposure, part of the embryos were manually dechorionated using forceps. […] At either 2, 8, 24 or 72 hpf the medium was completely removed and replaced by exposure media containing different concentrations of allyl alcohol (2 ml per well or 30 ml per crystallization dish, respectively). The Henry's law coefficients of the test chemicals (allyl alcohol: 4.99*10^−6, ethanol: 5.62*10^−6, 4-nitrophenol: 4.15*10^−10, acrolein: 1.22*10^−4; atm*m^3/mol) indicate a weak volatility for ethanol, allyl alcohol and acrolein. Therefore, in order to reduce potential evaporation, 24-well plates were covered with an adhesive foil; crystallization dishes were covered with a household plastic wrap and watch glasses. For comparison of the LC50 at different stages and the effect of dechorionation, exposure was performed in 24-well plates. For gene expression analysis and microinjection experiments crystallization dishes were used for exposure.
(§2) After 48 h of exposure referring to 50, 72 or 120 hpf stages, the number of dead embryos was counted. Dead embryos were detected according to the criteria given in the ISO standard; i.e., either coagulation, missing heartbeat, failure to develop somites or a lack of detachment of the tail-bud from the yolk sac were considered as indicators of lethality.
(§3) Injection needles were pulled from borosilicate glass capillary tubes with filament (GC100F-10; Warner Instruments, LLC, Hamden, CT) using a Narishige micropipette puller (Tokyo, Japan). Embryos were injected with the Eppendorf FemtoJet (Hamburg, Germany) through the chorion into the yolk compartment at the one-cell stage.
(§4) Plasmids with either the cDNA sequence of adh8a or adh8b were purchased from ImaGenes (Berlin, Germany, clone numbers IRBOp991G0334D for adh8a and IRBOp991F02101D for adh8b). The GFP open reading frame was cloned into the pCS2p+ Vector. For synthesis of capped mRNAs, adh8 plasmids were cut with XhoI and pCS2P+GFP was cut with KpnI. 5′ capped mRNA was synthesized with the mMessage Machine SP6 Kit (Life Technologies/Ambion, Darmstadt, Germany) according to the manufacturer's instructions. Injected mRNA concentration was 20–50 ng/µl. Phenol red was added to the RNA samples before injection (0.1% final concentration) in order to allow tracking of successful injections.
(§5) The LC50 values ± asymmetric 95% confidence intervals were calculated using the software JMP (SAS, Cary, NC) using the Hill-slope equation for modeling of concentration-response curves: [drawing 1] […]

Test in series [2]: as above
It is filed as in vivo, zebrafish (Danio rerio). Conditions: OBI, zebrafish, in vivo, other: static waterborne exposure in exposure medium, exposure 8-56 h, with chorion, crystallization dish, strain OBI. The method, then:
as §1, §2, §3, §4, §5

The conditions of series [3]: source not given; cited from earlier work.
For another series, the system named is zebrafish embryo. To be noted: cited from earlier work.
Series [4] is described as follows: Quantification of internal allyl alcohol concentration in mRNA-injected embryos by HS-GC-MS. Type of series: in vivo, zebrafish (Danio rerio). The protocol:
50 injected embryos were exposed from 8 hpf to 26 hpf with 0.5 or 1 mg/L allyl alcohol. At 26 hpf embryos were manually dechorionated using forceps and transferred into fresh 20 ml glass vials. The exposure medium was removed and embryos were rinsed twice with 2 ml ISO water for 30 sec, transferred into GC-MS headspace vials (Agilent Technologies, Böblingen, Germany). After removal of remaining fluid by using a microliter pipette the vials were closed and embryos were frozen at −20°C for 10 min. Subsequently, embryos were homogenized by 5 min sonication in an ultrasonic bath (Sonorex RK 512 H; Bandelin Electronic, 35 kHz). Chemical analyses were performed immediately after sonication using an Agilent 7890A gas chromatograph with headspace sampler G1888 (Agilent Technologies, Böblingen, Germany). The headspace oven temperature for equilibration of samples was set to 48°C for 10 min. The compound separation was performed using a capillary column (60 m×0.25 i.d.) with a nonpolar stationary phase HP1 (thickness 1.00 µm). Ultra high purity helium was used as carrier gas. Mass spectra were derived with Agilent 5975C inert XL MSD and Triple Axis Detector (Agilent Technologies,) in electron impact ionization mode 70eV. The detector conditions were: ion source temperature 230°C and quadrupole temperature 150°C. The column oven temperature program involved an initial temperature of 45°C for 1 min, an increase at 15°C/min to 150°C (held for 2 min), then an increase at 65°C/min to 250°C (held 0.5 min). The mass spectrometer was operated in selected ion monitoring (SIM) mode for calibration and analyte quantification in samples.
For the allyl alcohol calibration the following concentrations were used: 8.5; 42.5; 85; 425; 850 and 1700 µg/L. 5 µl of the respected concentration were transferred into a headspace vial and directly used for HS-GC-MS analysis. The calibration curve was generated based on peak areas. Exposure concentrations were determined for each replicate at the start of the exposure.

The subject of another series is zebrafish embryos. In words: Zebrafish embryo test (acute lethality, 48 h static exposure), non-injected embryos. Type of series: in vivo, zebrafish (Danio rerio). The protocol:
as §1, §2
The LC50 values ± asymmetric 95% confidence intervals were calculated using the software JMP (SAS, Cary, NC) using the Hill-slope equation for modeling of concentration-response curves: [drawing 1]
Min and Max were set to 0 and 100%, respectively. x and y represented the nominal exposure concentration and the survival rate (percentage).

The subject of another series is adult zebrafish. The arrangement: method as in PMID 22835061. Conditions: adult zebrafish ref 18; cited from earlier work.
Series [5] concerns adh8a mRNA injected zebrafish embryos. As to the kind of experiment: Time-lapse recording of adh8a mRNA injected embryos exposed to allyl alcohol. Type of series: in vivo. To be noted: 5 mg/L allyl alcohol, 24-wells. The protocol: For time lapse recording of zebrafish embryos were performed using a Leica DMI4000 B inverted microscope (Leica, Wetzlar, Germany), equipped with a digital camera (DFC 350FX; Leica) and 5× objective (HCX PL FLUOTAR, 5.0×0.15 DRY). adh8a mRNA injected were exposed to 5mg/L allyl alcohol in 24-well plates (2 embryos per 2 ml). A constant temperature of 26°C was maintained with a heated stage insert. Embryos were imaged by bright filed every 20 min for 20 h. Images were analyzed using LAS AF software (Leica, Wetzlar, Germany). Video was exported using 3 frames per second.

On the set-up of series [6]: method as in PMID 22835061. To be noted: cited from earlier work; for measured concentration as % of nominal concentration: 24-well plates ref 18.
The mark [7] stands for this setting: adh8a mRNA injected, exposure 8-56 h, with chorion, crystallization dish, strain OBI.
Where [8] appears, read: adh8b mRNA injected, exposure 8-56 h, with chorion, crystallization dish, strain OBI.
[9] abbreviates: gfp mRNA injected, exposure 8-56 h, with chorion, crystallization dish, strain OBI.

Molecules are shown by their SMILES. Converted amounts (≈) assume the structure as drawn. “Also recorded” adds a separate entry of the source. Read-outs that look alike come from different tables or passages of the source.

As usually defined, the LC50 is the concentration lethal to half of the exposed cells or organisms. For `O=[N+]([O-])c1ccc(O)cc1` [4-Nitrophenol], the LC50 with fathead minnow was 44.8 µg/mL (≈ 322 µM); in series [2] (adh8a mRNA injected), 9.65 µg/mL (≈ 69.4 µM); in [2] (adh8a/b mRNA (1:1) injected), 10.2 µg/mL (≈ 73.4 µM); in [2] (adh8b mRNA injected), 9.79 µg/mL (≈ 70.4 µM); in series [2] (gfp mRNA injected), 9.45 µg/mL (≈ 67.9 µM); in the series on zebrafish embryo (zebrafish embryo ref unpublished data) it was 12.0 µg/mL (≈ 86.3 µM). In addition, in series [1], the “increase in acute toxicity in response to injection of adh8 mRNA” value is reported as “did not detect any increase”. For the same compound, the “Henry's law coefficient” value in series [3] is given as 4.15*10^−10 atm*m^3/mol.

Regarding `CC=O` [acetaldehyde], the “fold higher toxicity compared to the parent compound ethanol” value in the series on fathead minnow (adult fish ref 27) is recorded as “about 435 fold”; with zebrafish embryo (zebrafish embryo ref 25), roughly 720 fold.

Regarding `C=CC=O` [acrolein], the “Henry's law coefficient” value in [3] is listed as 1.22*10^−4 atm*m^3/mol. For the same compound, the “acrolein detection in GC/MS chromatograms” value in series [4] (adh8a injected embryos exposed to allyl alcohol) was “could not detect acrolein”. The compound further returned an LC50 in the series with zebrafish embryos (exposure 2-50 hpf, with chorion, no mRNA injected, 24-well plates, strain OBI, n = 1) of 0.42 µg/mL. In addition, the “fold lower LC50 of acrolein compared with allyl alcohol” value with zebrafish embryos (zebrafish embryos, 2-50 hpf) is reported as roughly 1000 fold.

In the case of `C=CCO` [allyl alcohol, Allyl alcohol], in the series with adult zebrafish, the “LC50 (adult fish)” value was 0.28 µg/mL (≈ 4.82 µM). The “toxicity level (LC50) in adult fish” value with fathead minnow (fathead minnow ref 19) is 0.32 µg/mL. Further, the median lethal concentration (LC50) was 0.0134 mM in series [1] (adh8a mRNA injected embryos, read-out: LC50); 0.78 µg/mL in series [1] (setting [7]); 2.11 µg/mL in series [1] (adh8a/b mRNA (1:1) injected, exposure 8-56 h, with chorion, crystallization dish, strain OBI); 166 µg/mL in series [1] (setting [8]); 436 µg/mL in [1] (setting [9]); 8.2 mM in the series with zebrafish embryos (exposure 2-50 hpf, non-injected, read-out: LC50). Also, the LC50 with zebrafish embryos (exposure 2-50 hpf, with chorion, no mRNA injected, 24-well plates, strain WIK) was determined as 478 µg/mL; in the series on zebrafish embryos (exposure 8-56 h, with chorion, non-injected control, crystallization dish, strain OBI) it was 328 µg/mL; in the series on zebrafish embryos (exposure 24-72 hpf, with chorion (value paired with 451 mg/L), read-out: LC50), 7.7 mM; in the series with zebrafish embryos (exposure 24-72 hpf, with chorion, no mRNA injected, 24-well plates, strain WIK) it was 451 µg/mL; in the series with zebrafish embryos (exposure 24-72 hpf, without chorion (manually removed), no mRNA injected, 24-well plates, strain WIK), 492 µg/mL; in the series on zebrafish embryos (exposure 24-72 hpf, without chorion (value paired with 492 mg/L), read-out: LC50), 8.5 mM. For the same compound, the LC50 with zebrafish embryos (exposure 72-120 hpf, hatched, no mRNA injected, 24-well plates, strain WIK) amounted to 157 µg/mL; in the series with zebrafish embryos (exposure 72-120 hpf, hatched, no mRNA injected, 24-well plates, strain WIK, listed as Allyl alcohol), 159 µg/mL; with zebrafish embryos (exposure 72-120 hpf, read-out: LC50) it was 2.7 mM. The “fold reduction of LC50 by adh8b mRNA injection” value in series [1] (adh8b mRNA injections) is 2.5 fold. The “fold reduction of LC50 by adh8a mRNA injection” value in series [1] (compared to gfp-injected or non-injected embryos) is listed as “more than 500 fold”. The “time to coagulation of the embryos” value in series [5] was 3 to 9 h; with zebrafish embryos (toxic concentration), no more than 24 h. Besides, in series [3], the “Henry's law coefficient” value was 4.99*10^−6 atm*m^3/mol. Also, the “measured concentration as % of nominal concentration” value in series [6] (0 h) is reported as “about 80%”; in series [6] (within 48 h of exposure) it was “about 28%”. In series [6] (24-well plates, 48 h ref 18), the “geometric mean of measured concentrations as % of nominal concentration” value was 47%. The “allyl alcohol detection in embryos by GC-MS” value in series [4] (adh8a mRNA injected embryos) is reported as “no allyl alcohol was found; also recorded: below the limit of detection”. Moreover, the “internal allyl alcohol concentration” value in series [4] (adh8a mRNA injected, 0.5 mg/L nominal, 8-26 hpf, Repl. 1-3, n.d. = not detectable) was found to be 0 pg/embryo. In addition, the “internal allyl alcohol level (below the limit of detection)” value in series [4] (adh8a-injected embryos) was less than 4.6 µg/L. Further, the “internal allyl alcohol concentration (range)” value in series [4] (before decline in adh8a-injected embryos) is reported as 0.23-58 ng/embryo. Besides, in the series with zebrafish embryos (72-120 hpf vs earlier exposure periods), the “fold lower LC50 for exposure from 72-120 hpf compared with earlier stages” value is listed as 3 fold. In addition, the “sublethal malformations in exposed embryos” value in the series on zebrafish embryos (48 h exposures) was “No sublethal malformations were observed”. Also, in the series with zebrafish embryos (zebrafish embryos vs adult fish), the “fold higher toxic concentrations (lower toxicity) in embryos compared to adult fish” value is recorded as “about 1000 fold”.

As to `CCO` [ethanol], the LC50 with fathead minnow (adult fish) is 14700 µg/mL (≈ 319000 µM); in series [1] (setting [7]), 18570 µg/mL; in [1] (adh8a/b mRNA injected, exposure 8-56 h, with chorion, crystallization dish, strain OBI), 17780 µg/mL; in series [1] (setting [8]), 16310 µg/mL; in [1] (setting [9]), 19170 µg/mL. Besides, the “increase in acute toxicity in response to injection of adh8 mRNA” value in [1] is reported as “did not detect any increase”. For the same compound, in [3], the “Henry's law coefficient” value is 5.62*10^−6 atm*m^3/mol.

The values are drawn from publication PMC3940891, “Transient Overexpression of adh8a Increases Allyl Alcohol Toxicity in Zebrafish Embryos” (PLoS ONE, 2014).
